Drawing on the supplement of paper PMC11061612, this text covers Bliss excess for six compounds.

Holding throughout (test): Bliss excess, mean over the matrix (fraction); higher = more synergy
For one assay, the system named is TC-71 (Ewing's Sarcoma). In outline: (§1)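 Bliss excess equals the observed combination effect minus the expected value EA + EB − EA·EB, where EA and EB are the effects of each agent alone. Combination Emax is the second-highest inhibition within the matrix. Inhibition was scaled from CellTiter-Glo 2.0 luminescence, with 0 set by vehicle wells and 1 by blank wells, after 72 hours of two-drug dosing of cells plated in 1536-well plates.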

For assay [1], the system named is PANC-08-13 (Pancreatic Carcinoma). In outline:
as §1

Assay [2] relates to HL-60 (Acute Myeloid Leukemia). The method in brief: as §1
Assay [3] deals with DiFi (Colorectal Carcinoma). The method in brief:
as §1

In assay [4] the test system is KYSE-180 (Esophageal Squamous Cell Carcinoma). The method in brief:
as §1

Assay [5] concerns MOLT-16 (T-Lymphoblastic Leukemia). In outline:
as §1

The test system of assay [6] is MFM-223 (Breast Carcinoma). In outline: as §1
Assay [7] has as its system NCI-H1792 (Lung Adenocarcinoma). In outline: as §1
For a further assay, the system named is LN-18 (Glioblastoma). In outline:
as §1

Assay [8] has as its system TE-6 (Esophageal Squamous Cell Carcinoma). The method in brief: as §1
The next assay concerns ES8 (Ewing's Sarcoma). In outline:
as §1

Assay [9] deals with EVSA-T (Breast Carcinoma). In outline: as §1
For assay [10], the system named is SR (Other Blood Carcinomas). The method in brief: as §1
In assay [11] the test system is MKN28 (Gastric Carcinoma). In outline: as §1
The subject of assay [12] is K-562 (Chronic Myelogenous Leukemia). In outline:
as §1

In assay [13] the test system is NCI-H847 (Small Cell Lung Carcinoma). In outline:
as §1

Assay [14] relates to GR-ST (B-Lymphoblastic Leukemia). In outline:
as §1

The test system of assay [15] is KCL-22 (Chronic Myelogenous Leukemia). In outline: as §1
For assay [16], the system named is P12-ICHIKAWA (T-Lymphoblastic Leukemia). The method in brief: as §1
The next assay deals with WM-115 (Melanoma). The method in brief: as §1

Regarding `CN(CCO)CC[C@H](CSc1ccccc1)Nc1ccc(S(=O)(=O)NC(=O)c2ccc(N3CCC([C@@H](O)c4ccccc4-c4ccc(Cl)cc4)CC3)cc2)cc1S(=O)(=O)C(F)(F)F` [AZD4320] + Cn1cnc2c(F)c(Nc3ccc(Br)cc3Cl)c(C(=O)NOCCO)cc21 [Selumetinib] (first compound max 1 µM, 7x7, partner max 3 µM), the Bliss excess with TC-71 (Ewing's Sarcoma) is 0.0614; in assay [1], 0.0195; in assay [2] it was 0.0259; in assay [3], 0.0838; in assay [4], 0.0148; in assay [5] it was -0.0335. Also, the Bliss excess in assay [6] was -0.0146; in [7], 0.0416; with LN-18 (Glioblastoma), 0.031; in assay [8], -0.0277; in the assay with ES8 (Ewing's Sarcoma) it was -0.0479; in assay [9], 0.0703. The Bliss excess in [10] was 0.0208; in [11], 0.0272; in [12], 0.0465; in assay [13] it was 0.0247; in [14] it was -0.0417; in assay [15], 0.0271. For the same compound, the results for the Bliss excess (in [16]; in the assay with WM-115 (Melanoma)) were 0.0748 and 0.102, respectively.

As for `Cc1c2c(nn1C)CSCc1cc(n(C)n1)CSc1cc(c3ccccc3c1)OCCCc1c(C(=O)O)n(C)c3c-2c(Cl)ccc13` [AZD5991] + C1CN(CCC1(C(=O)N[C@@H](CCO)C2=CC=C(C=C2)Cl)N)C3=NC=NC4=C3C=CN4 [Capivasertib] (first compound max 1 µM, 7x7, partner max 3 µM), the Bliss excess was 0.0256 in the assay on TC-71 (Ewing's Sarcoma); -0.0235 in assay [1]; -0.0315 in assay [2]; 0.0384 in [3]; 0.0306 in assay [4]; -0.0113 in assay [5]. For the same compound, the Bliss excess was 0.0005 in assay [6]; -0.019 in assay [7]; 0.0306 with LN-18 (Glioblastoma); -0.0177 in assay [8]; 0.0627 in the assay with ES8 (Ewing's Sarcoma); -0.0074 in [9]. The Bliss excess was 0.0447 in [10]; -0.0198 in assay [11]; 0.0462 in [12]; 0.0714 in assay [13]; -0.0244 in [14]; 0.0067 in assay [15]. For the same compound, the values for the Bliss excess (in [16]; with WM-115 (Melanoma)) were 0.039 and 0.0165, respectively.

As to `Cc1c2c(nn1C)CSCc1cc(n(C)n1)CSc1cc(c3ccccc3c1)OCCCc1c(C(=O)O)n(C)c3c-2c(Cl)ccc13` [AZD5991] + C=CCn1c(=O)c2cnc(Nc3ccc(N4CCN(C)CC4)cc3)nc2n1-c1cccc(C(C)(C)O)n1 [AZD1775] (first compound max 1 µM, partner max 1 µM), the Bliss excess with TC-71 (Ewing's Sarcoma) is 0.0478; in assay [1] it was 0.0156; in [2] it was -0.0149; in [3], 0.0285; in assay [4], 0.0464; in assay [5] it was 0.01. The Bliss excess in assay [6] was -0.0611; in [7], -0.0453; in the assay on LN-18 (Glioblastoma), -0.0087; in [8], 0.0135; in the assay with ES8 (Ewing's Sarcoma) it was 0.0203; in [9] it was 0.0165. The Bliss excess was -0.045 in [10]; -0.0227 in assay [11]; 0.0092 in [12]; -0.0445 in [13]; -0.0402 in [14]; -0.035 in assay [15]. Besides, the Bliss excess in assay [16] was 0.0528; with WM-115 (Melanoma), -0.0328.

On to `Cc1c2c(nn1C)CSCc1cc(n(C)n1)CSc1cc(c3ccccc3c1)OCCCc1c(C(=O)O)n(C)c3c-2c(Cl)ccc13` [AZD5991] + CC1(C)CCC(CN2CCN(c3ccc(C(=O)NS(=O)(=O)c4ccc(NCC5CCOCC5)c([N+](=O)[O-])c4)c(Oc4cnc5[nH]ccc5c4)c3)CC2)=C(c2ccc(Cl)cc2)C1 [Venetoclax] (first compound max 1 µM, 7x7, partner max 1 µM), for which the Bliss excess is 0.0733 with TC-71 (Ewing's Sarcoma); -0.0411 in [1]; 0.0723 in assay [2]; 0.0436 in assay [3]; 0.0103 in assay [4]; 0.063 in assay [5]. The Bliss excess is -0.0041 in assay [6]; 0.0248 in [7]; -0.0167 in the assay with LN-18 (Glioblastoma); -0.157 in assay [8]; 0.0936 in the assay with ES8 (Ewing's Sarcoma); 0.0125 in [9]. Moreover, the Bliss excess in assay [10] was 0.0732; in [11], -0.0332; in [12] it was -0.003; in assay [13] it was 0.253; in assay [14] it was -0.0484; in assay [15], 0.0111. Also, the values for the Bliss excess (in assay [16]; with WM-115 (Melanoma)) were 0.0268 and -0.0496, respectively.

As for `Cc1c2c(nn1C)CSCc1cc(n(C)n1)CSc1cc(c3ccccc3c1)OCCCc1c(C(=O)O)n(C)c3c-2c(Cl)ccc13` [AZD5991] + CCN(CCO)CCCOc1ccc2c(Nc3cc(CC(=O)Nc4cccc(F)c4)[nH]n3)ncnc2c1 [AZD2811] (first compound max 1 µM, 7x7, partner max 1 µM), the Bliss excess with TC-71 (Ewing's Sarcoma) is -0.0244; in assay [1], 0.0135; in [2] it was -0.0001; in [3], -0.0077; in assay [4] it was 0.102; in assay [5] it was -0.0114. In addition, the Bliss excess was 0.0103 in [6]; 0.016 in [7]; -0.029 with LN-18 (Glioblastoma); 0.0482 in assay [8]; 0.012 in the assay with ES8 (Ewing's Sarcoma); 0.0959 in assay [9]. Besides, the Bliss excess in assay [10] was 0.178; in assay [11], 0.0839; in [12], 0.086; in assay [13], 0.0011; in [14], -0.0742; in assay [15], 0.0736. For the same compound, the Bliss excess was -0.0164 in assay [16] and -0.0726 in the assay with WM-115 (Melanoma).

`Cc1c2c(nn1C)CSCc1cc(n(C)n1)CSc1cc(c3ccccc3c1)OCCCc1c(C(=O)O)n(C)c3c-2c(Cl)ccc13` [AZD5991] + CN(C)CCCOc1ccc(-c2ccc3ncc4c(c3c2)n(C2CCOCC2)c(=O)n4C)cn1 [AZD0156] (first compound max 1 µM, 7x7, partner max 1 µM): the Bliss excess was -0.001 in the assay on TC-71 (Ewing's Sarcoma); -0.0158 in [1]; 0.006 in [2]; -0.0112 in assay [3]; 0.0286 in assay [4]; -0.0302 in assay [5]. Besides, the Bliss excess is -0.0038 in assay [6]; 0.0004 in [7]; 0.0444 in the assay on LN-18 (Glioblastoma); -0.0167 in [8]; 0.0224 in the assay with ES8 (Ewing's Sarcoma); -0.0304 in assay [9]. Besides, the Bliss excess is 0.0246 in assay [10]; 0.0021 in [11]; 0.0048 in assay [12]; -0.0131 in [13]; -0.112 in assay [14]; 0.0191 in assay [15]. The Bliss excess is 0.108 in assay [16] and -0.0136 in the assay on WM-115 (Melanoma).
